# Laboratory results published in patent US20190364890A1, “SYNERGISTIC COMBINATION OF ORTHO-PHENYLPHENOL AND BIS-(3-AMINOPROPYL)DODECYLAMINE” (Dow Global Technologies LLC, priority 2016, published 2019).
# Experiments:
# Assay in all cases: Minimum Inhibitory Concentration (MIC) test / synergy testing
# Format in all cases: cell-based
# [1] = tested on: Candida albicans DSM# 1386; conditions: single biocide, TSB medium pH 5, 30° C., 72 hours
# Description: (§1) The synergism of the biocides combination of the present invention was determined using the Minimum Inhibitory (MIC) test method described by Kull, F. C., et. al in Applied Microbiology 9:538-541 (1961).
# The Minimum Inhibitory Concentration Test (MIC) is designed to evaluate the lowest concentration of a biocide, biocide blend or biocide combination to prevent bacteria growing in a defined broth. […]
# The synergy testing was carried out as follows: • 1. The test was executed with a Hamilton MLStarPlus robot using automated turbidity reading with BioTek Synergy H4 plate reader. • 2. […]
# • The cultures were maintained as glycerol stocks at −80° C. in cryovials, are thawed and then 100 μl spread on MEA (malt extract agar) petri dishes. • The yeast strain plates were incubated at 28° C. for 1-2 days then harvested with buffer pH 5.0. • Based on total viable count results, the inoculum was prepared. • 7. […] Reading of the results was carried out by measuring absorbance at 600 nm for each sample at the beginning of the test (tzero) and after incubation (tendpoint). tendpoint was chosen at 48 hours for bacteria and 72 hours for yeast. The difference in absorbance between tendpoint and tzero was used to assign a score (“1” if Δ>0.2, confirming growth, and “0” if Δ≤0.2, confirming no growth) from which the MIC values were derived.
# [2] = tested on: Pseudomonas aeruginosa DSM# 939; conditions: single biocide, TSB medium pH 5, 30° C., 48 hours
# Description: as §1
# (§2) The Minimum Inhibitory Concentration Test (MIC) is designed to evaluate the lowest concentration of a biocide, biocide blend or biocide combination to prevent bacteria growing in a defined broth.
# (§3) The MICs of the single biocides NaOPP and BDA as well as of combinations of these two actives (all in TSB) in 3 different ratios (1:1; 10:1, 100:1) were estimated against each of the 4 microorganisms Staphylococcus aureus (DSMZ#799), Pseudomonas aeruginosa (DSMZ#939) and Candida albicans (DSMZ#1386), Pseudomonas putida, respectively.
# (§4) The synergy testing was carried out as follows: • 1. The test was executed with a Hamilton MLStarPlus robot using automated turbidity reading with BioTek Synergy H4 plate reader. • 2. Biocide systems were prepared in 2.2 ml deep well plates by transferring and diluting biocides from stock solutions to first rows of the plates. The concentrations of biocides in stock bottles were adjusted to be 20× more concentrated than the highest desired concentration. • 3. Then 15 subsequent serial dilutions with dilution factor 1.3 were performed resulting in 16 different concentrations for each system. • 4. In the next step serially diluted biocide systems were transferred to the media blocks containing 850 μl of TSB medium adjusted to pH 5. For each biocide system 100 μl was transferred to the media, resulting in 950 μl of final volume of media+biocides and 9.5 times dilution of the biocides from the biocide plate. At this point, the concentrations of all biocides in media were 1.053×final concentration. • 5. After preparation and mixing of the described systems, 4 aliquots of 190 μl were prepared in 96-well microtiter plates. • 6. Preparation of the microbe suspension:
# (§5) • The culture was maintained as a glycerol stock at −80° C. in cryovials. A cryovial was thawed and then 100 μl spread on a TSA agar plate. After incubation for 1 day at 30° C. the bacteria were harvested with buffer at pH 7.3. A total viable count on TSA plate was carried out and bacterial suspension was diluted in buffer in order to deliver ˜2×10^7 CFU/ml.
# (§6) • The cultures were maintained as glycerol stocks at −80° C. in cryovials, are thawed and then 100 μl spread on MEA (malt extract agar) petri dishes. • The yeast strain plates were incubated at 28° C. for 1-2 days then harvested with buffer pH 5.0. • Based on total viable count results, the inoculum was prepared. • 7. Each test sample (190 μl) was inoculated with the 10 μl of microbe suspension to provide a level of ˜1×10^6 CFU/ml of the bacteria species and ˜1×10^5 CFU/ml of the yeast species. • 8. The test samples were mixed and incubated at 30° C. for 2 days (48 hours) when tested against bacteria and 3 days (72 hours), respectively, when tested against yeast. • 9. Growth of the micro-organisms leads to turbidity after incubation, clarity indicates no growth. Reading of the results was carried out by measuring absorbance at 600 nm for each sample at the beginning of the test (tzero) and after incubation (tendpoint). tendpoint was chosen at 48 hours for bacteria and 72 hours for yeast. The difference in absorbance between tendpoint and tzero was used to assign a score (“1” if Δ>0.2, confirming growth, and “0” if Δ≤0.2, confirming no growth) from which the MIC values were derived.
# Pseudomonas putida = conditions: single biocide, TSB medium pH 5, 30° C., 48 hours
# Description: as §1, §2, §3, §4, §5, §6
# [3] = tested on: Staphylococcus aureus DSM# 799; conditions: single biocide, TSB medium pH 5, 30° C., 48 hours
# Description: as §1, §2, §3, §4, §5, §6
Structure (SMILES),"MIC ([1]; Candida albicans, DSM1386, read-out: MIC results for single biocides) [µg/mL]","MIC ([2]; Pseudomonas aeruginosa, DSM939, read-out: MIC results for single biocides) [µg/mL]","MIC (Pseudomonas putida; Pseudomonas putida, read-out: MIC results for single biocides) [µg/mL]","MIC ([3]; Staphylococcus aureus, DSM799, read-out: MIC results for single biocides) [µg/mL]",MIC results for single biocides [1] [ppm],MIC results for single biocides [2] [ppm],MIC results for single biocides (Pseudomonas putida) [ppm],MIC results for single biocides [3] [ppm]
"CCCCCCCCCCCCN(CCCN)CCCN [BDA, bis-(3-aminopropyl)dodecylamine]",≥ 260,200,200,91,,,,
"[Na+].[O-]c1ccccc1-c1ccccc1 [NAOPP, sodium ortho-phenylphenate]",,,,,167,167,283,129
